Legend:
AmbB T–C [1] = target: T1, AmbB T–C (Pseudomonas aeruginosa, UniProt Q9I1H0); experiment: X-ray crystallography, […] Å; LC-MS; type: binding; conditions: covalent; on Ser768 of T domain, arm in donor channel of C domain
T1 construct: T-C bidomain, residues 727-1249, GST tag cleaved (pGEX-6P-1), E. coli host, holo form made with Sfp; Ppant on Ser768

full-length AmbB = target: T2, full-length AmbB (Pseudomonas aeruginosa, UniProt Q9I1H0); experiment: […]-alanine aminoacylation/TCA precipitation radioassay; colorimetric pyrophosphate adenylation assay; type: biochemical; conditions: 5 mM ATP, 5 mM MgCl2; radioassay with labelled compound
T2 construct: full length, cleavable N-terminal SUMO tag (pET28a), NiNTA purified, E. coli host

AmbB T–C [2] = target: T1, AmbB T–C; experiment: X-ray crystallography, […] Å; LC-MS; type: binding; conditions: covalent; on Ser768 of T domain, L-Ala thioester near His953 of C domain; possible Ppant/Ppant-L-Ala mixture

T1 sequence (Q9I1H0 727-1249): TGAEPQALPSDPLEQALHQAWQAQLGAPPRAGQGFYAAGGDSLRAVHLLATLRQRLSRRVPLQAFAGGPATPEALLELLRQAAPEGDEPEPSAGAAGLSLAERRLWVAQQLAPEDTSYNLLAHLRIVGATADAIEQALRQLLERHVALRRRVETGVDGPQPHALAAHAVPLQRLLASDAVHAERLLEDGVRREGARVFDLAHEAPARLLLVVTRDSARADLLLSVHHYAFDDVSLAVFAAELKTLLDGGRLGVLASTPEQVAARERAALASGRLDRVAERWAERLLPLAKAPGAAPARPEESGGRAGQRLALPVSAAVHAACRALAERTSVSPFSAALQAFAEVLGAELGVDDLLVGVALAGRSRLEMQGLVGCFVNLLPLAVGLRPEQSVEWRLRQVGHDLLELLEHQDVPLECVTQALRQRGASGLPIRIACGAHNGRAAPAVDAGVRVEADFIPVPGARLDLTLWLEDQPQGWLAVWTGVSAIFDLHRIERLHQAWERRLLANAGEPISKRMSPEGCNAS
T2 sequence (Q9I1H0 whole entry): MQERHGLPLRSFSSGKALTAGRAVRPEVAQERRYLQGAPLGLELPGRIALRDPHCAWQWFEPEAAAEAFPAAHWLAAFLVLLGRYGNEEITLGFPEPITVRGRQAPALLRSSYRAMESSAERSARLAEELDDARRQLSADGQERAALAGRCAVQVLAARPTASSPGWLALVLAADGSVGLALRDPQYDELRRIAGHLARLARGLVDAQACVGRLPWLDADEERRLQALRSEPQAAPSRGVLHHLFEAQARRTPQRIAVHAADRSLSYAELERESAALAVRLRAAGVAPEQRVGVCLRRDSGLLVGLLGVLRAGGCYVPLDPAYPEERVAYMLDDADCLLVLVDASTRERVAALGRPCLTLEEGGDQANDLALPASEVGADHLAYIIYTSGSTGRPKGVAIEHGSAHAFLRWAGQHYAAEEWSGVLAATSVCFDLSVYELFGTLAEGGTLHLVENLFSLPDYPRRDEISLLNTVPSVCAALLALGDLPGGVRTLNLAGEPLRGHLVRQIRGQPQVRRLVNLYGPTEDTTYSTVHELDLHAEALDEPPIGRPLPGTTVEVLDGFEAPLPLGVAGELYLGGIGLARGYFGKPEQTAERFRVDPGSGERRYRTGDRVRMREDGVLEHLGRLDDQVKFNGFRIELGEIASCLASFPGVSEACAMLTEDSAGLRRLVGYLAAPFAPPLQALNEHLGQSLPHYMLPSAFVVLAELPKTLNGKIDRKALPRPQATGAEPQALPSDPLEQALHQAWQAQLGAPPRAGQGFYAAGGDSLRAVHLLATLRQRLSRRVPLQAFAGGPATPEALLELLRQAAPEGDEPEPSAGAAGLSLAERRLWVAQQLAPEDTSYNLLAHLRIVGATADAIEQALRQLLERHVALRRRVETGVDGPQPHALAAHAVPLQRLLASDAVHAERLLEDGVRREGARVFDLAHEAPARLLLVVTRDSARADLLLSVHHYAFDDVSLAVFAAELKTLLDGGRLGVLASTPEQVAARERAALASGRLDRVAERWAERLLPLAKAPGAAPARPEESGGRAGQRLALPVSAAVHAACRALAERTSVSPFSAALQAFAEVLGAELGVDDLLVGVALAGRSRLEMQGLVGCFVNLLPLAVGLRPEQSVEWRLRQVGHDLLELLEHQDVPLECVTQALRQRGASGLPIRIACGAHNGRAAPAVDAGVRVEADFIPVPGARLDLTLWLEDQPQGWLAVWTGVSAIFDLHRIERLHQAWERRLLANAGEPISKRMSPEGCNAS

CC(C)(COP(=O)(O)O)[C@@H](O)C(=O)NCCC(=O)NCCS [Ppant]
X-ray crystallography, 2.2 Å; LC-MS (AmbB T–C [1]): Structure of holo AmbB T–C with Ppant (cyan stick) covalently attached to Ser768

C[C@H](N)C(=O)O [L-Ala]
14C-alanine aminoacylation/TCA precipitation radioassay; colorimetric pyrophosph (full-length AmbB): apo full-length AmbB, which activates L-Ala (Supplementary Fig. S4a)

C[C@H](N)C(=O)SCCNC(=O)CCNC(=O)[C@H](O)C(C)(C)COP(=O)(O)O [Ppant-L-Ala]
X-ray crystallography, 2.5 Å; LC-MS (AmbB T–C [2]): chains B and D exhibit relatively well-defined electron density for Ppant-L-Ala

Reference: paper PMC8968710, “Structural insights into the substrate-bound condensation domains of non-ribosomal peptide synthetase AmbB” (Scientific Reports, 2022)
